Test results: the supplement of paper PMC10307832

What was measured:
Test in all cases: relative viability (nuclei count vs DMSO), 5 days (fraction); higher = more cells survive
A-427 = tested on: A-427
Method in brief: (§1)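 Relative viability is defined as nuclei in treated wells over nuclei in vehicle wells. Duplicate plates were run and medians reported. Lung cancer cell lines in 1536-well plates were dosed by pin tool one day after seeding, with one drug or with a fixed anchor-drug dose plus five library-drug doses (not always all listed) in √10 steps, and nuclei were counted after 5 days.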

H3255 = tested on: H3255
Method in brief: as §1

HARA = tested on: HARA
Method in brief: as §1

HCC-15 = tested on: HCC-15
Method in brief: as §1

HCC-366 = tested on: HCC-366
Method in brief: as §1

LXF-289 = tested on: LXF-289
Method in brief: as §1

NCI-H1437 = tested on: NCI-H1437
Method in brief: as §1

NCI-H1755 = tested on: NCI-H1755
Method in brief: as §1

NCI-H1793 = tested on: NCI-H1793
Method in brief: as §1

NCI-H1915 = tested on: NCI-H1915
Method in brief: as §1

NCI-H1975 = tested on: NCI-H1975
Method in brief: as §1

NCI-H2009 = tested on: NCI-H2009
Method in brief: as §1

NCI-H2023 = tested on: NCI-H2023
Method in brief: as §1

NCI-H2405 = tested on: NCI-H2405
Method in brief: as §1

NCI-H3122 = tested on: NCI-H3122
Method in brief: as §1

NCI-H441 = tested on: NCI-H441
Method in brief: as §1

NCI-H460 = tested on: NCI-H460
Method in brief: as §1

NCI-H596 = tested on: NCI-H596
Method in brief: as §1

NCI-H650 = tested on: NCI-H650
Method in brief: as §1

PC-14 = tested on: PC-14
Method in brief: as §1

PC-3 [JPC-3] = tested on: PC-3 [JPC-3]
Method in brief: as §1

SK-LU-1 = tested on: SK-LU-1
Method in brief: as §1

UMC-11 = tested on: UMC-11
Method in brief: as §1

Question: What does the source list for `Cc1cnc(-c2cnc(NCCNc3ccc(C#N)cn3)nc2-c2ccc(Cl)cc2Cl)[nH]1` + CC(=O)Nc1cccc(-n2c(=O)n(C3CC3)c(=O)c3c(Nc4ccc(I)cc4F)n(C)c(=O)c(C)c32)c1 [Trametinib] (partner 0.02 µM)?
Answer: relative viability (A-427; first compound 0.08 µM): 0.814; relative viability (A-427; first compound 0.253 µM): 0.792; relative viability (A-427; first compound 0.8 µM): 0.827; relative viability (A-427; first compound 2.53 µM): 0.837; relative viability (H3255; first compound 0.08 µM): 0.794; relative viability (H3255; first compound 0.253 µM): 0.583; relative viability (H3255; first compound 0.8 µM): 0.663; relative viability (H3255; first compound 2.53 µM): 0.668; relative viability (HARA; first compound 0.08 µM): 0.746; relative viability (HARA; first compound 0.253 µM): 0.68; relative viability (HARA; first compound 0.8 µM): 0.623; relative viability (HARA; first compound 2.53 µM): 0.708; relative viability (HCC-15; first compound 0.08 µM): 0.449; relative viability (HCC-15; first compound 0.253 µM): 0.391; relative viability (HCC-15; first compound 0.8 µM): 0.383; relative viability (HCC-15; first compound 2.53 µM): 0.422; relative viability (HCC-366; first compound 0.08 µM): 0.397; relative viability (HCC-366; first compound 0.253 µM): 0.308; relative viability (HCC-366; first compound 0.8 µM): 0.292; relative viability (HCC-366; first compound 2.53 µM): 0.326; relative viability (LXF-289; first compound 0.08 µM): 0.704; relative viability (LXF-289; first compound 0.253 µM): 0.6; relative viability (LXF-289; first compound 0.8 µM): 0.674; relative viability (LXF-289; first compound 2.53 µM): 0.69; relative viability (NCI-H1437; first compound 0.08 µM): 0.677; relative viability (NCI-H1437; first compound 0.253 µM): 0.492; relative viability (NCI-H1437; first compound 0.8 µM): 0.489; relative viability (NCI-H1437; first compound 2.53 µM): 0.381; relative viability (NCI-H1755; first compound 0.08 µM): 0.865; relative viability (NCI-H1755; first compound 0.253 µM): 0.755; relative viability (NCI-H1755; first compound 0.8 µM): 0.771; relative viability (NCI-H1755; first compound 2.53 µM): 0.771; relative viability (NCI-H1793; first compound 0.08 µM): 0.462; relative viability (NCI-H1793; first compound 0.253 µM): 0.45; relative viability (NCI-H1793; first compound 0.8 µM): 0.422; relative viability (NCI-H1793; first compound 2.53 µM): 0.403; relative viability (NCI-H1915; first compound 0.08 µM): 0.308; relative viability (NCI-H1915; first compound 0.8 µM): 0.29; relative viability (NCI-H1915; first compound 2.53 µM): 0.299; relative viability (NCI-H1975; first compound 0.08 µM): 0.35; relative viability (NCI-H1975; first compound 0.253 µM): 0.383; relative viability (NCI-H1975; first compound 0.8 µM): 0.353; relative viability (NCI-H1975; first compound 2.53 µM): 0.339; relative viability (NCI-H2009; first compound 0.08 µM): 0.372; relative viability (NCI-H2009; first compound 0.253 µM): 0.273; relative viability (NCI-H2009; first compound 0.8 µM): 0.293; relative viability (NCI-H2009; first compound 2.53 µM): 0.384; relative viability (NCI-H2023; first compound 0.08 µM): 0.647; relative viability (NCI-H2023; first compound 0.253 µM): 0.537; relative viability (NCI-H2023; first compound 0.8 µM): 0.712; relative viability (NCI-H2023; first compound 2.53 µM): 0.798; relative viability (NCI-H2405; first compound 0.08 µM): 0.755; relative viability (NCI-H2405; first compound 0.253 µM): 0.634; relative viability (NCI-H2405; first compound 0.8 µM): 0.611; relative viability (NCI-H2405; first compound 2.53 µM): 0.439; relative viability (NCI-H3122; first compound 0.08 µM): 0.262; relative viability (NCI-H3122; first compound 0.8 µM): 0.246; relative viability (NCI-H3122; first compound 2.53 µM): 0.233; relative viability (NCI-H441; first compound 0.08 µM): 0.561; relative viability (NCI-H441; first compound 0.8 µM): 0.443; relative viability (NCI-H441; first compound 2.53 µM): 0.372; relative viability (NCI-H460; first compound 0.08 µM): 0.225; relative viability (NCI-H460; first compound 0.253 µM): 0.121; relative viability (NCI-H460; first compound 0.8 µM): 0.107; relative viability (NCI-H460; first compound 2.53 µM): 0.195; relative viability (NCI-H596; first compound 0.08 µM): 0.877; relative viability (NCI-H596; first compound 0.253 µM): 0.704; relative viability (NCI-H596; first compound 0.8 µM): 0.782; relative viability (NCI-H596; first compound 2.53 µM): 0.91; relative viability (NCI-H650; first compound 0.08 µM): 1.17; relative viability (NCI-H650; first compound 0.253 µM): 0.989; relative viability (NCI-H650; first compound 0.8 µM): 1.29; relative viability (NCI-H650; first compound 2.53 µM): 0.988; relative viability (PC-14; first compound 0.08 µM): 0.961; relative viability (PC-14; first compound 0.253 µM): 0.713; relative viability (PC-14; first compound 0.8 µM): 0.904; relative viability (PC-14; first compound 2.53 µM): 0.825; relative viability (PC-3 [JPC-3]; first compound 0.08 µM): 0.75; relative viability (PC-3 [JPC-3]; first compound 0.253 µM): 0.646; relative viability (PC-3 [JPC-3]; first compound 0.8 µM): 0.774; relative viability (PC-3 [JPC-3]; first compound 2.53 µM): 0.703; relative viability (SK-LU-1; first compound 0.08 µM): 0.489; relative viability (SK-LU-1; first compound 0.253 µM): 0.61; relative viability (SK-LU-1; first compound 0.8 µM): 0.563; relative viability (SK-LU-1; first compound 2.53 µM): 0.707; relative viability (UMC-11; first compound 0.08 µM): 0.891; relative viability (UMC-11; first compound 0.253 µM): 0.525; relative viability (UMC-11; first compound 0.8 µM): 0.377; relative viability (UMC-11; first compound 2.53 µM): 0.82
